Source: patent US4017607A
Converted amounts (≈) assume the structure as drawn. Read-outs that look alike come from different tables or passages of the source.

Assays:
[1] = test system: Staphylococcus albus 1200A; test: Minimum inhibitory concentration, serial dilution method; format: cell-based; settings: read-out: Minimum Inhibitory Concentration
[2] = test system: Diplococcus pneumoniae Type I; test: as above; format: cell-based; settings: Streptococcus pneumoniae; Diplococcus pneumoniae Type I; 24 hours, 37° C; read-out: Minimum Inhibitory Concentration
[3] = test system: Staphylococcus aureus Smith; test: as above; format: cell-based; settings: Staphylococcus aureus Smith; 24 hours, 37° C; read-out: Minimum Inhibitory Concentration
[4] = test system: Streptococcus hemolyticus D-90; test: as above; format: cell-based; settings: Streptococcus pyogenes, read-out: Minimum Inhibitory Concentration
[5] = test system: Corynebacterium diphtheriae Type intermedius; test: as above; format: cell-based; settings: Corynebacterium diphtheriae Type intermedius; 24 hours, 37° C; read-out: Minimum Inhibitory Concentration
[6] = test system: Corynebacterium diphtheriae Type gravis; test: as above; format: cell-based; settings: Corynebacterium diphtheriae Type gravis; 24 hours, 37° C; read-out: Minimum Inhibitory Concentration
[7] = test system: Streptococcus pyogenes D-58; test: as above; format: cell-based; settings: D58; Streptococcus pyogenes D-58; 24 hours, 37° C; read-out: Minimum Inhibitory Concentration
[8] = test system: Bacillus subtilis PCI 219; test: as above; format: cell-based; settings: PCI219; Bacillus subtilis PCI 219; 24 hours, 37° C; read-out: Minimum Inhibitory Concentration
[9] = test system: Sarcina lutea; test: as above; format: cell-based; settings: Micrococcus luteus; Sarcina lutea; 24 hours, 37° C; read-out: Minimum Inhibitory Concentration
[10] = test system: Bacillus subtilis ATCC 6633; test: as above; format: cell-based; settings: read-out: Minimum Inhibitory Concentration
[11] = test system: Streptococcus faecalis ATCC 8043; test: as above; format: cell-based; settings: Enterococcus faecalis, ATCC8043; Streptococcus faecalis ATCC 8043; 24 hours, 37° C; read-out: Minimum Inhibitory Concentration
[12] = test system: Staphylococcus aureus 209P; settings: 7th day, 10 mice per group
[13] = test system: Staphylococcus aureus Terajima; test: Minimum inhibitory concentration, serial dilution method; format: cell-based; settings: read-out: Minimum Inhibitory Concentration
[14] = test system: Staphylococcus aureus 209P; test: Minimum inhibitory concentration, serial dilution method, Brain Heart Infusion broth; format: cell-based; settings: read-out: Minimum Inhibitory Concentration
[15] = test system: Bacillus anthracis No. 119; test: microbe, parasite or virus in culture; format: cell-based; settings: NO.119, 24 h, read-out: Minimum Inhibitory Concentration
[16] = test system: Diplococcus pneumoniae Type III; test: Minimum inhibitory concentration, serial dilution method; format: cell-based; settings: Streptococcus pneumoniae; Diplococcus pneumoniae Type III; 24 hours, 37° C; read-out: Minimum Inhibitory Concentration
[17] = test system: Streptococcus hemolyticus Cook; test: as above; format: cell-based; settings: Streptococcus pyogenes; Streptococcus hemolyticus Cook; 24 hours, 37° C; read-out: Minimum Inhibitory Concentration
[18] = test system: gram-negative and gram-positive bacteria; test: Antibacterial activity (in words); format: cell-based
[19] = Staphylococcus albus 1200A, 24 hours, 37° C
[20] = D90, Streptococcus hemolyticus D-90, 24 hours, 37° C
[21] = ATCC6633, Bacillus subtilis ATCC 6633, 24 hours, 37° C
[22] = Staphylococcus aureus Terajima, 24 hours, 37° C
[23] = Staphylococcus aureus 209P, 24 hours, 37° C
[24] = Staphylococcus aureus, 209P, 24 h

Row | Compound | MIC [1, 19] | MIC [2] | MIC [3] | MIC [4, 20] | MIC [5] | MIC [6] | MIC [7] | MIC [8] | MIC [9] | MIC [10, 21] | MIC [11] | Rate of surviving mice in each group of mice ([12]; 100 mg/kg oral) | Rate of surviving mice in each group of mice ([12]; 200 mg/kg oral) | MIC [13, 22] | MIC [14, 23] | MIC [15] | MIC [16] | MIC [17] | MIC ([1]; Staphylococcus, 1200A, 24 h) | MIC [14, 24] | also measured
1 | CCC(=O)OC1C=CC=CCC(C)OC(=O)CC(OC(=O)CC)C(OC)C(OC2OC(C)C(OC3CC(C)(OC(=O)CC)C(OC(C)=O)C(C)O3)C(N(C)C)C2O)C(CC=O)CC1C (stereo not shown) [Compound No. 5] | 1.56 µg/mL (≈ 1.71 µM) | 0.09 µg/mL (≈ 0.0987 µM) | 0.78 µg/mL (≈ 0.855 µM) | 0.78 µg/mL (≈ 0.855 µM) | 0.19 µg/mL (≈ 0.208 µM) | 0.19 µg/mL (≈ 0.208 µM) | 0.19 µg/mL (≈ 0.208 µM) | 1.56 µg/mL (≈ 1.71 µM) | 0.09 µg/mL (≈ 0.0987 µM) | 1.56 µg/mL (≈ 1.71 µM) | 0.78 µg/mL (≈ 0.855 µM) | 4/10 | 8/10 | 3.12 µg/mL (≈ 3.42 µM) | 1.56 µg/mL (≈ 1.71 µM) | 0.78 µg/mL (≈ 0.855 µM) | 0.09 µg/mL (≈ 0.0987 µM) | 0.39 µg/mL (≈ 0.428 µM) | – | – | –
2 | CCC(=O)OC1CC(=O)OC(C)CC=CC=CC(OC(C)=O)C(C)CC(CC=O)C(OC2OC(C)C(OC3CC(C)(OC(=O)CC)C(OC(=O)C(C)C)C(C)O3)C(N(C)C)C2O)C1OC (stereo not shown) [Compound No. 3] | – | 0.09 µg/mL (≈ 0.0972 µM) | 0.39 µg/mL (≈ 0.421 µM) | 0.78 µg/mL (≈ 0.842 µM) | 0.19 µg/mL (≈ 0.205 µM) | 0.19 µg/mL (≈ 0.205 µM) | 0.19 µg/mL (≈ 0.205 µM) | 0.78 µg/mL (≈ 0.842 µM) | 0.09 µg/mL (≈ 0.0972 µM) | – | 0.78 µg/mL (≈ 0.842 µM) | 4/10 | 10/10 | 3.12 µg/mL (≈ 3.37 µM) | – | 1.56 µg/mL (≈ 1.68 µM) | 0.09 µg/mL (≈ 0.0972 µM) | 1.9 µg/mL (≈ 2.05 µM) | 1.56 µg/mL (≈ 1.68 µM) | 1.56 µg/mL (≈ 1.68 µM) | MIC ([10]; Bacillus subtilis, ATCC6633, 24 h): 1.56 µg/mL (≈ 1.68 µM)
3 | CCC(=O)OC1CC(=O)OC(C)CC=CC=CC(OC(C)=O)C(C)CC(CC=O)C(OC2OC(C)C(OC3CC(C)(O)C(OC(=O)CC)C(C)O3)C(N(C)C)C2OC(C)=O)C1OC (stereo not shown) [9,2'-di-acetyl SF-837 substance, reference compound] | – | 0.09 µg/mL (≈ 0.1 µM) | 0.39 µg/mL (≈ 0.434 µM) | – | 0.19 µg/mL (≈ 0.212 µM) | 0.39 µg/mL (≈ 0.434 µM) | 0.19 µg/mL (≈ 0.212 µM) | 0.78 µg/mL (≈ 0.869 µM) | 0.19 µg/mL (≈ 0.212 µM) | 3.12 µg/mL (≈ 3.47 µM) | 3.12 µg/mL (≈ 3.47 µM) | 0/10 | 6/10 | – | – | 1.56 µg/mL (≈ 1.74 µM) | 0.09 µg/mL (≈ 0.1 µM) | 0.19 µg/mL (≈ 0.212 µM) | 1.56 µg/mL (≈ 1.74 µM) | 1.56 µg/mL (≈ 1.74 µM) | MIC ([4]; D90, 24 h): 1.56 µg/mL (≈ 1.74 µM); MIC ([13]; Staphylococcus aureus, 24 h): 1.56 µg/mL (≈ 1.74 µM)
4 | 9,2' -di-acetyl-18,3" -di-propionyl SF-837 substance | – | – | – | – | – | – | – | – | – | – | – | – | – | – | – | – | – | – | – | – | antibacterial activity [18]: observed
5 | CCC(=O)OC1CC(=O)OC(C)CC=CC=CC(OC(C)=O)C(C)CC(CC=O)C(OC2OC(C)C(OC3CC(C)(OC(=O)CC)C(OC(=O)CC)C(C)O3)C(N(C)C)C2O)C1OC (stereo not shown) [Compound No. 6] | 1.56 µg/mL (≈ 1.71 µM) | 0.09 µg/mL (≈ 0.0987 µM) | 0.39 µg/mL (≈ 0.428 µM) | 0.78 µg/mL (≈ 0.855 µM) | 0.19 µg/mL (≈ 0.208 µM) | 0.19 µg/mL (≈ 0.208 µM) | 0.19 µg/mL (≈ 0.208 µM) | 0.78 µg/mL (≈ 0.855 µM) | 0.09 µg/mL (≈ 0.0987 µM) | 1.56 µg/mL (≈ 1.71 µM) | 0.78 µg/mL (≈ 0.855 µM) | 6/10 | 10/10 | 3.12 µg/mL (≈ 3.42 µM) | 1.56 µg/mL (≈ 1.71 µM) | 0.78 µg/mL (≈ 0.855 µM) | 0.09 µg/mL (≈ 0.0987 µM) | 0.19 µg/mL (≈ 0.208 µM) | – | – | –
6 | CCC(=O)OC1CC(=O)OC(C)CC=CC=CC(OC(C)=O)C(C)CC(CC=O)C(OC2OC(C)C(OC3CC(C)(OC(C)=O)C(OC(=O)CC)C(C)O3)C(N(C)C)C2O)C1OC (stereo not shown) [Compound No. 2] | 1.56 µg/mL (≈ 1.74 µM) | 0.09 µg/mL (≈ 0.1 µM) | 0.39 µg/mL (≈ 0.434 µM) | 0.78 µg/mL (≈ 0.869 µM) | 0.19 µg/mL (≈ 0.212 µM) | 0.19 µg/mL (≈ 0.212 µM) | 0.19 µg/mL (≈ 0.212 µM) | 0.78 µg/mL (≈ 0.869 µM) | 0.09 µg/mL (≈ 0.1 µM) | 1.56 µg/mL (≈ 1.74 µM) | 0.78 µg/mL (≈ 0.869 µM) | 8/10 | 10/10 | 3.12 µg/mL (≈ 3.47 µM) | 1.56 µg/mL (≈ 1.74 µM) | 0.78 µg/mL (≈ 0.869 µM) | 0.09 µg/mL (≈ 0.1 µM) | 0.19 µg/mL (≈ 0.212 µM) | – | – | –
